# Laboratory results taken from EP1655608A1, “CFTR as a component of an autophagy signaling pathway, applications thereof to autophagic diseases, and determination of cystic fibrosis as an autophagic disease” (priority 2004, dated 2006).
# Experiments:
# Sertoli 42GPA9 cells = test: Autophagic vacuolation of Sertoli cells (light, electron and confocal microscopy); format: cell-based, mouse; conditions: for effect on Lindane-preformed vacuoles: added after vacuole formation; for effect on Lindane-induced vacuolation: pretreatment 90 min before Lindane 50 µM, 3 MA 30 mM, BafA1 100 nM, NPPB 25 µM; for induction of vacuolation / autophagy by the chemical alone: Lindane 50 µM, DDT 1.8 µM, Bϕ 90 µM, PCP 15 µM, SB203580 10 µM, NH4Cl 5 mM
# Procedure: Autophagy was induced either by starvation or by treatment with Lindane under nutrient-rich condition.
# (§1) When bafilomycin A1 (BafA1, V-ATPase-specific inhibitor, 100 nM, Sigma); Park Davis Inhibitor PD98059 (MEK1-specific inhibitor, 10 µM, Cell Signaling), H89 (PKA inhibitor, 5 µM, Calbiochem), 3-Methyladenine (3 MA, autophagy-specific inhibitor, 10-30 mM, Sigma) or NPPB [5-nitro-2-(3-phenylpropylamino) benzoic acid, Cl^- channel blocker, 25 µM, Sigma] was used, it was added to the starvation medium for 90 min, prior to Lindane addition or nutrient deprivation.
# The ultrastructural changes caused by Lindane or starvation in Sertoli and renal cells were analysed by transmission electron microscopy, as previously described (57). […] Cell pellets were then rinsed in cacodylate buffer, postfixed in 1% OsO4 for 1 h at 4°C, dehydrated through graded ethanol washes, and embedded in epoxy resin. Oriented […] sections were obtained with diamond knives, and representative areas were chosen for ultra-thin sectioning. […] 30-50 micrographs were taken randomly from each sample at primary magnification × 10,000.
# Sertoli cells seeded on glass coverslips were transiently transfected with EGFP-Rab7 or MEK1^+-HA expression plasmids using Fugene 6 reagent (Roche), washed and allowed to recover overnight before addition of Lindane (50 µM). […] To determine the pH of the Lindane-induced vacuoles, living cells were stained with acridine-orange (5 µg/ml, Sigma), a membrane-permeable weak base whose fluorescence shifts from green at neutral pH to red in acidic compartments (59). 10 min later, cells were washed and directly observed under a confocal microscope.
# PKA = test: CREB phosphorylation as readout of PKA activity; format: cell-based; conditions: H89
# Text: The emerging issue is therefore how Lindane could activate CFTR Cl^- currents. One possibility would be that Lindane directly activates CFTR, but this appears unlikely because it required minutes instead of seconds to increase Cl^- conductance. […] To further explore this hypothesis, we tested the effect of Lindane on the renal proximal cell line (PCT1). […] Of particular interest, we provide several lines of evidence that the CFTR Δex10 channels remained functional in response to Lindane in PCT cells. […] These finding provide the first evidence that an agonist, e.g. Lindane, could activate CFTR Cl- current independently of PKA, raising the promise for new strategies using Lindane to restore Cl-conductance in cystic fibrosis patients with CFTR variants on PKA sites.
# CFTR^+/+ cells = test: Starvation-induced autophagic death of CFTR+/+ renal cells; format: cell-based, mouse; conditions: 16 hours nutrient deprivation
# Procedure: (§2) For nutrient deprivation, cells were washed with DMEM and first starved in minimal medium lacking serum for 90 min. Cells were then washed again with PBS and deprived for up to 16 h in nutrient-free medium lacking amino acids, vitamins, and serum (HBSS, 0.1% BSA, 20 mM HEPES, Sigma #H8264). As controls, cells were incubated in this nutrient-free medium supplemented with a mixture of non essential amino acids (0.1 mM, GIBCO, #11140-035).
# as §1
# p42^ERK2 and p44^ERK1 = test: ERK activation by anti-phospho-ERK Western blotting of cell lysates; format: cell-based, mouse; conditions: for effect on Lindane-induced ERK activation: pretreatment, PD98059 10 µM, NPPB 25 µM, 90 min; for ERK activation in Sertoli cells: Lindane 50 µM, DDT 1.8 µM, Bϕ 90 µM, PCP 15 µM
# Text: (§3) After stripping, equal loadings of proteins were verified by reprobing the blots with anti-ERK1 (Santa Cruz Biotechnology).
# CFTR Cl^- channels = CFTR Cl^- channels (Homo sapiens, UniProt P13569); conditions: NPPB 0.1 mM, glibenclamide 0.1 mM, external DIDS 1 mM; review (41); cited from earlier work
# p38 = p38 / Jun kinase activation by Western blotting of Sertoli cell lysates; format: cell-based, mouse; conditions: Sertoli cell lysates treated for 15 min
# Text: as §3
# Sertoli cell = conditions: reported, ref (84); cited from earlier work
# CFTR Cl^- channel = CFTR Cl^- channel (Mus musculus, UniProt P26361); test: Whole-cell patch-clamp Cl- currents in Sertoli cells; format: cell-based; parameters: endogenous in cells; host or cells: Sertoli 42GPA9 cell line (mouse)
# Procedure: Whole cell currents were monitored from Sertoli cells, CFTR^-/- and WT renal epithelial cells with an RK 400 amplifier (Biologic, Münster, Germany) as previously described (40). The bath (extracellular) solution consisted of 140 mM NMDGCl (N-methyl-D-glucamine chloride), 5 mM D-Glucose, 1 mM CaCl2, and 10 mM HEPES, pH 7.4. Patch pipette (intracellular) solution contained 140 mM NMDGCl, 5 mM D-Glucose, 5 mM EGTA, 5 mM MgATP, and 10 mM HEPES, pH 7.4. Osmolarity of both solutions was adjusted to 280 mOSM by adding mannitol. These solutions were designed to study Cl^- currents because Cl^- is the sole permeant ion in these conditions and to prevent Ca^2+ activated Cl^- currents by the addition of EGTA in the patch solution. After establishment of whole cell configuration, cells were stimulated by the addition of Lindane (50 µM), FSK (10 µM), vehicle (Me2S0 or ethanol) in the absence or the presence of NPPB (0.1mM), DIDS (4,4'-diisothiocyanatostilbene-2,2'-disulfonic acid, 1 mM, Sigma), glibenclamide (0.1mM, Sigma) or PD98059 (10 µM) in the bath solution. The cell membrane potential was clamped at -50mV and 400 ms pulses were applied from -100 to +120 mV with increments of 20 mV every 2 s. To generate whole cell current-voltage (I-V) relationship, membrane currents resulting from voltage stimuli were recorded for at least 3 min and analysed using an IBM-AT-compatible computer equipped with Digidata 1200 interface (Axon Instruments) and pCLAMP software (versions 5.51 and 6.0, Axon Instruments), respectively. Statistics-Results are expressed as mean ± S.E. of n observations using the Student's t test.
# CFTR^-/- cells = test: Starvation-induced autophagic death of CFTR-/- renal cells; format: cell-based, mouse; conditions: nutrient-free medium
# Procedure: as §2
# Sequence of CFTR Cl^- channels (P13569 whole entry): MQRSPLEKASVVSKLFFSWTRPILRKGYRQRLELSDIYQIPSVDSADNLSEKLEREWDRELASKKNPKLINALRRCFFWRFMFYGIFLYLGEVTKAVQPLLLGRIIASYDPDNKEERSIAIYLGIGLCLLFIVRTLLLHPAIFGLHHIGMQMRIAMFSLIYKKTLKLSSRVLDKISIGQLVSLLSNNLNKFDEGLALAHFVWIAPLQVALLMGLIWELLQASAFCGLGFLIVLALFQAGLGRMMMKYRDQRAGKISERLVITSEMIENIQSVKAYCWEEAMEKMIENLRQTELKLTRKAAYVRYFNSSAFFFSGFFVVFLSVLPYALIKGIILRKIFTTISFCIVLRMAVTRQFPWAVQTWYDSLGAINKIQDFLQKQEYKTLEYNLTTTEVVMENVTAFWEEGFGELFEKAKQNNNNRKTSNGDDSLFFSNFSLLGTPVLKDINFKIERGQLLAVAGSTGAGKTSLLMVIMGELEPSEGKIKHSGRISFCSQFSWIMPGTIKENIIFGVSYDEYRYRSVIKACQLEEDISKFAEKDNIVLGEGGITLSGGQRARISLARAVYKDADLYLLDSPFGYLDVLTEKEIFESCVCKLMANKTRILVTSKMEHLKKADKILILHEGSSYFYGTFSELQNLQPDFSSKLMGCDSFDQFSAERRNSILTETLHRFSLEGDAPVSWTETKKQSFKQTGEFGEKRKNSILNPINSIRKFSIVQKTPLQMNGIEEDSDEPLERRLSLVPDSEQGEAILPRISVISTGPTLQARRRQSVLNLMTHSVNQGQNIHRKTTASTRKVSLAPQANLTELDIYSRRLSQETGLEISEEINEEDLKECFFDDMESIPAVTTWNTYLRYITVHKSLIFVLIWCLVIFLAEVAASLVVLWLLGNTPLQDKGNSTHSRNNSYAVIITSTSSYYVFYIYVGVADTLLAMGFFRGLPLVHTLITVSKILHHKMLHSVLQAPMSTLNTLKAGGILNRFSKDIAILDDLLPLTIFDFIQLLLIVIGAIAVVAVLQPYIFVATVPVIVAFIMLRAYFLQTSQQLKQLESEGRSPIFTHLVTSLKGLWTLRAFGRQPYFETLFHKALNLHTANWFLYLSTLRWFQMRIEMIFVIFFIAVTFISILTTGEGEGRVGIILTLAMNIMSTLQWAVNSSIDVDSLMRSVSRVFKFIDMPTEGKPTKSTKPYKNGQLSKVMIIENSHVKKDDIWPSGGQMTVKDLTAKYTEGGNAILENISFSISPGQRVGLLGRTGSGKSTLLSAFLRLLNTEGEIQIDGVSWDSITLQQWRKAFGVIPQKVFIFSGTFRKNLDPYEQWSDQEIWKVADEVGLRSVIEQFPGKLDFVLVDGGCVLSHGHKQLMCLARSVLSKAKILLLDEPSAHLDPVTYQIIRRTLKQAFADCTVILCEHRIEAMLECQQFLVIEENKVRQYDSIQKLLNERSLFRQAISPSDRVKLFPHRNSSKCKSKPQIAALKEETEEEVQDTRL
# Sequence of CFTR Cl^- channel (P26361 whole entry): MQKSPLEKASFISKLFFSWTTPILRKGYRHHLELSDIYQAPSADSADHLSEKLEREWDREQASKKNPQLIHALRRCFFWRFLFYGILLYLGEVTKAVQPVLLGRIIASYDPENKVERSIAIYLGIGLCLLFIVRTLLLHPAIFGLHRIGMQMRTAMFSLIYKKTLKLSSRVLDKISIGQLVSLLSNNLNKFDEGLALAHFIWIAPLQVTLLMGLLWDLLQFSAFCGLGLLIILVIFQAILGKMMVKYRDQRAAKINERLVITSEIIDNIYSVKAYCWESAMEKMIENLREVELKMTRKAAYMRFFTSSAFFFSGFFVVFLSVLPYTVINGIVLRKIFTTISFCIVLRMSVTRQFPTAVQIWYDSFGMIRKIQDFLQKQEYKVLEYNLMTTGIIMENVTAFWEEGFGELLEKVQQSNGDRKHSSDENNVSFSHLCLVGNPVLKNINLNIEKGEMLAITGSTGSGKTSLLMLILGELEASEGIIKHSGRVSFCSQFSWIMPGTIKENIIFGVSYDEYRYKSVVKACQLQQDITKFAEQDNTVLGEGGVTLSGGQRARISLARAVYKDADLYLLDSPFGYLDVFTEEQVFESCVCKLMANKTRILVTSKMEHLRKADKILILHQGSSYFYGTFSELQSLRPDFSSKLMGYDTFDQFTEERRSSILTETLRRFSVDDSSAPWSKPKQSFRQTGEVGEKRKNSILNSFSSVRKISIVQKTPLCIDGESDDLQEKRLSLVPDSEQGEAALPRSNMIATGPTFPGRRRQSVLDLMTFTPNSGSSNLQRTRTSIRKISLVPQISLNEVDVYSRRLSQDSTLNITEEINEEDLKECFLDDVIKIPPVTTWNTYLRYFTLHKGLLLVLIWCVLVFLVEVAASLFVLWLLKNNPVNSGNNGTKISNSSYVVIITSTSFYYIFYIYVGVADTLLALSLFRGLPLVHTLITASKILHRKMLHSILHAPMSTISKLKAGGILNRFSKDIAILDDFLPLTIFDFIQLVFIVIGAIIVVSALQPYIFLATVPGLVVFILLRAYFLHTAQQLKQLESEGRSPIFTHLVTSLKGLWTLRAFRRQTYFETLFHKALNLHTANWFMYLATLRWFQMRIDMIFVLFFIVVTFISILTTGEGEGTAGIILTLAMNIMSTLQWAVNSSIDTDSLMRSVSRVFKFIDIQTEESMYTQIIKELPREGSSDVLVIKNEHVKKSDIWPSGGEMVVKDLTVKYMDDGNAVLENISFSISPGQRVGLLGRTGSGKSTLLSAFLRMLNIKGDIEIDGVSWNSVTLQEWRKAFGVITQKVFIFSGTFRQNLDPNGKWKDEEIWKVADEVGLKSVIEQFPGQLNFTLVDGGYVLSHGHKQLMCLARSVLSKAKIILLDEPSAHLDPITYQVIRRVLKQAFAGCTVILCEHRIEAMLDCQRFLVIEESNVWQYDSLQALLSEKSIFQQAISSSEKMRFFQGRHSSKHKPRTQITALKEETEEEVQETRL
compound,measurement,setting,value
"CO/C1=C\C(C)=C\[C@@H](C)[C@@H](O)[C@@H](C)C/C(C)=C/C=C/[C@H](OC)[C@@H]([C@@H](C)[C@@H](O)[C@H](C)[C@@]2(O)C[C@@H](O)[C@H](C)[C@@H](C(C)C)O2)OC1=O [BafA1, bafilomycin A1]",effect on Lindane-preformed vacuoles,Sertoli 42GPA9 cells,collapsed Lindane-preformed vacuoles
same,effect on Lindane-induced vacuolation,"Sertoli 42GPA9 cells; 24 h, PD98059 10 µM",prevented their formation
O=S(=O)(NCCNCC=Cc1ccc(Br)cc1)c1cccc2cnccc12 [H89],effect on Lindane-induced CREB phosphorylation,PKA,failed to counteract Lindane-induced CREB phosphorylation
"O=C(O)c1cc([N+](=O)[O-])ccc1NCCCc1ccccc1 [NPPB, 5-nitro-2-(3-phenylpropylamino) benzoic acid]",effect on Lindane-preformed vacuoles,Sertoli 42GPA9 cells,collapsed Lindane-preformed vacuoles
same,effect on Lindane-induced vacuolation,"Sertoli 42GPA9 cells; 24 h, PD98059 10 µM",abrogated Lindane-induced vacuolation
same,outcome of CFTR^+/+ cells under nutrient deprivation in the presence of inhibitor,CFTR^+/+ cells,cell death
same,effect on Lindane-induced ERK activation,p42^ERK2 and p44^ERK1,still stimulated
same,sensitivity of CFTR Cl^- channels to blocker,CFTR Cl^- channels,sensitive
COc1ccc(Cl)cc1C(=O)NCCc1ccc(S(=O)(=O)NC(=O)NC2CCCCC2)cc1 [glibenclamide],sensitivity of CFTR Cl^- channels to blocker,CFTR Cl^- channels,sensitive
Oc1c(Cl)c(Cl)c(Cl)c(Cl)c1Cl [Pentachlorophenol],induction of vacuolation / autophagy by the chemical alone,Sertoli 42GPA9 cells; 24 h,no vacuolation was observed
same,p38 activation,p38,concomitantly activated p38
same,ERK activation in Sertoli cells,p42^ERK2 and p44^ERK1,strong activator of ERK1/2
same,Sertoli cell vacuolation in vivo,Sertoli cell,does not
Clc1ccc(C(c2ccc(Cl)cc2)C(Cl)(Cl)Cl)cc1 [DDT],induction of vacuolation / autophagy by the chemical alone,Sertoli 42GPA9 cells; 24 h,induced vacuolation
same,ERK activation in Sertoli cells,p42^ERK2 and p44^ERK1,induced the activation of both p42^ERK2 and p44^ERK1
same,Sertoli cell vacuolation in vivo,Sertoli cell,reported to promote Sertoli cell vacuolation
COc1cccc(-c2cc(=O)c3ccccc3o2)c1N [PD98059],effect on Lindane-induced CFTR Cl- conductance,CFTR Cl^- channel; PD98059 10 µM + Lindane,dramatically reduced
same,whole-cell I-V relationship with inhibitor alone,CFTR Cl^- channel; PD98059 alone,identical to control I-V
same,ultrastructure in the presence of inhibitor plus Lindane,"Sertoli 42GPA9 cells; PD98059 10 µM + Lindane, electron microscopy",dramatic accumulation of lamellar structures
same,effect on chloroquine-induced vacuolation,"Sertoli 42GPA9 cells; chloroquine 500 µM, 24 h, PD98059 10 µM",did not affect chloroquine-induced vacuolation
same,effect on Lindane-induced vacuolation,"Sertoli 42GPA9 cells; 24 h, PD98059 10 µM",abrogated Lindane-induced vacuolation
same,outcome of CFTR^+/+ cells under nutrient deprivation in the presence of inhibitor,CFTR^+/+ cells,cell death
same,effect on Lindane-induced ERK activation,p42^ERK2 and p44^ERK1,drastically reduced the ability of Lindane to activate ERK
Cl.N [NH4Cl],induction of vacuolation / autophagy by the chemical alone,Sertoli 42GPA9 cells; 24 h,did not alter cell morphology
same,effect on toxicant-induced vacuole development,Sertoli 42GPA9 cells; NH4Cl 5 mM added to medium,accelerated toxicant-induced vacuole development
biphenol A,induction of vacuolation / autophagy by the chemical alone,Sertoli 42GPA9 cells; 24 h,induced vacuolation
same,ERK activation in Sertoli cells,p42^ERK2 and p44^ERK1,induced the activation of both p42^ERK2 and p44^ERK1
"Cn1cnc(N)c2ncnc1-2 [3 MA, 3-Methyladenine]",effect on starvation-induced death of CFTR^-/- cells,CFTR^-/- cells,arrested starvation-induced cell death
same,effect on Lindane-induced vacuolation,"Sertoli 42GPA9 cells; 24 h, PD98059 10 µM",dramatically reduced
